In the supplement of paper PMC10307832:

Columns and labels:
Assay in all cases: relative viability (nuclei count vs DMSO), 5 days (fraction); higher = more cells survive
201T = test system: 201T
Procedure, shortened: (§1)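 Each reported value is a median over duplicate plates. It expresses relative viability: treated-well nuclei count divided by vehicle-well nuclei count. Lung cancer cell lines in 1536-well plates were dosed by pin tool a day after seeding, alone with one drug or with a fixed anchor-drug dose plus five library-drug doses (not always all listed) in √10 steps, and nuclei were counted after 5 days.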

BEN = test system: BEN
Procedure, shortened: as §1

EMC-BAC-2 = test system: EMC-BAC-2
Procedure, shortened: as §1

HARA = test system: HARA
Procedure, shortened: as §1

HCC-44 = test system: HCC-44
Procedure, shortened: as §1

LCLC-103H = test system: LCLC-103H
Procedure, shortened: as §1

LOU-NH91 = test system: LOU-NH91
Procedure, shortened: as §1

NCI-H1395 = test system: NCI-H1395
Procedure, shortened: as §1

NCI-H1993 = test system: NCI-H1993
Procedure, shortened: as §1

NCI-H2023 = test system: NCI-H2023
Procedure, shortened: as §1

NCI-H2087 = test system: NCI-H2087
Procedure, shortened: as §1

NCI-H2126 = test system: NCI-H2126
Procedure, shortened: as §1

NCI-H2347 = test system: NCI-H2347
Procedure, shortened: as §1

NCI-H23 = test system: NCI-H23
Procedure, shortened: as §1

NCI-H3122 = test system: NCI-H3122
Procedure, shortened: as §1

NCI-H441 = test system: NCI-H441
Procedure, shortened: as §1

NCI-H522 = test system: NCI-H522
Procedure, shortened: as §1

NCI-H647 = test system: NCI-H647
Procedure, shortened: as §1

NCI-H650 = test system: NCI-H650
Procedure, shortened: as §1

NCI-H727 = test system: NCI-H727
Procedure, shortened: as §1

NCI-H838 = test system: NCI-H838
Procedure, shortened: as §1

Which relative viability (201T; first compound 0.08 µM) does the source give for `COc1nc(C)cnc1NS(=O)(=O)c1cccnc1-c1ccc(-c2nnco2)cc1` [Zibotentan] + CC(=O)c1c(C)c2cnc(Nc3ccc(N4CCNCC4)cn3)nc2n(C2CCCC2)c1=O [Palbociclib] (partner 0.5 µM) here?
Its relative viability is 0.357.

What about the relative viability (201T; first compound 0.253 µM) of the same compound?
The relative viability was 0.346.

What about the relative viability (201T; first compound 0.8 µM) of the same compound?
Its relative viability is 0.359.

What about the relative viability (201T; first compound 2.53 µM) of the same compound?
The relative viability was 0.363.

What about the relative viability (BEN; first compound 0.08 µM) of the same compound?
Its relative viability is 0.496.

And the relative viability (BEN; first compound 0.253 µM)?
Its relative viability is 0.493.

And the relative viability (BEN; first compound 0.8 µM)?
The relative viability was 0.451.

And the relative viability (BEN; first compound 2.53 µM)?
Its relative viability is 0.44.

What about the relative viability (EMC-BAC-2; first compound 0.08 µM) of the same compound?
The relative viability was 0.532.

What about the relative viability (EMC-BAC-2; first compound 0.8 µM) of the same compound?
The relative viability was 0.546.

What about the relative viability (EMC-BAC-2; first compound 2.53 µM) of the same compound?
The relative viability was 0.503.

And the relative viability (HARA; first compound 0.08 µM)?
Its relative viability is 0.297.

And the relative viability (HARA; first compound 0.253 µM)?
The relative viability was 0.226.

And the relative viability (HARA; first compound 0.8 µM)?
Its relative viability is 0.27.

What about the relative viability (HARA; first compound 2.53 µM) of the same compound?
The relative viability was 0.258.

And the relative viability (HCC-44; first compound 0.08 µM)?
The relative viability was 0.98.

And the relative viability (HCC-44; first compound 0.253 µM)?
Its relative viability is 0.827.

What about the relative viability (HCC-44; first compound 0.8 µM) of the same compound?
Its relative viability is 0.949.

What about the relative viability (HCC-44; first compound 2.53 µM) of the same compound?
Its relative viability is 1.

And the relative viability (LCLC-103H; first compound 0.08 µM)?
The relative viability was 0.459.

What about the relative viability (LCLC-103H; first compound 0.253 µM) of the same compound?
Its relative viability is 0.477.

What about the relative viability (LCLC-103H; first compound 0.8 µM) of the same compound?
Its relative viability is 0.449.

What about the relative viability (LCLC-103H; first compound 2.53 µM) of the same compound?
Its relative viability is 0.442.

And the relative viability (LOU-NH91; first compound 0.08 µM)?
Its relative viability is 0.483.

What about the relative viability (LOU-NH91; first compound 0.253 µM) of the same compound?
The relative viability was 0.544.

And the relative viability (LOU-NH91; first compound 0.8 µM)?
Its relative viability is 0.504.

What about the relative viability (LOU-NH91; first compound 2.53 µM) of the same compound?
The relative viability was 0.476.

What about the relative viability (NCI-H1395; first compound 0.08 µM) of the same compound?
Its relative viability is 0.653.

And the relative viability (NCI-H1395; first compound 0.253 µM)?
The relative viability was 0.618.

And the relative viability (NCI-H1395; first compound 0.8 µM)?
The relative viability was 0.614.

And the relative viability (NCI-H1395; first compound 2.53 µM)?
Its relative viability is 0.654.

What about the relative viability (NCI-H1993; first compound 0.08 µM) of the same compound?
Its relative viability is 0.661.

What about the relative viability (NCI-H1993; first compound 0.253 µM) of the same compound?
Its relative viability is 0.712.

What about the relative viability (NCI-H1993; first compound 0.8 µM) of the same compound?
The relative viability was 0.537.

And the relative viability (NCI-H1993; first compound 2.53 µM)?
Its relative viability is 0.662.

What about the relative viability (NCI-H2023; first compound 0.08 µM) of the same compound?
The relative viability was 0.409.

What about the relative viability (NCI-H2023; first compound 0.8 µM) of the same compound?
Its relative viability is 0.355.

And the relative viability (NCI-H2023; first compound 2.53 µM)?
The relative viability was 0.356.

And the relative viability (NCI-H2087; first compound 0.08 µM)?
The relative viability was 0.221.

What about the relative viability (NCI-H2087; first compound 0.253 µM) of the same compound?
The relative viability was 0.263.

What about the relative viability (NCI-H2087; first compound 0.8 µM) of the same compound?
The relative viability was 0.297.

What about the relative viability (NCI-H2087; first compound 2.53 µM) of the same compound?
The relative viability was 0.268.

What about the relative viability (NCI-H2126; first compound 0.08 µM) of the same compound?
The relative viability was 0.316.

What about the relative viability (NCI-H2126; first compound 0.253 µM) of the same compound?
Its relative viability is 0.338.

And the relative viability (NCI-H2126; first compound 0.8 µM)?
The relative viability was 0.34.

And the relative viability (NCI-H2126; first compound 2.53 µM)?
The relative viability was 0.362.

What about the relative viability (NCI-H2347; first compound 0.08 µM) of the same compound?
Its relative viability is 0.407.

And the relative viability (NCI-H2347; first compound 0.253 µM)?
Its relative viability is 0.445.

What about the relative viability (NCI-H2347; first compound 0.8 µM) of the same compound?
The relative viability was 0.439.

What about the relative viability (NCI-H2347; first compound 2.53 µM) of the same compound?
Its relative viability is 0.454.

And the relative viability (NCI-H23; first compound 0.08 µM)?
Its relative viability is 0.586.

What about the relative viability (NCI-H23; first compound 0.253 µM) of the same compound?
The relative viability was 0.496.

And the relative viability (NCI-H23; first compound 0.8 µM)?
Its relative viability is 0.53.

And the relative viability (NCI-H23; first compound 2.53 µM)?
Its relative viability is 0.527.

And the relative viability (NCI-H3122; first compound 0.08 µM)?
Its relative viability is 0.186.

What about the relative viability (NCI-H3122; first compound 0.253 µM) of the same compound?
Its relative viability is 0.177.

And the relative viability (NCI-H3122; first compound 0.8 µM)?
Its relative viability is 0.154.

And the relative viability (NCI-H3122; first compound 2.53 µM)?
Its relative viability is 0.18.

And the relative viability (NCI-H441; first compound 0.08 µM)?
Its relative viability is 0.237.

And the relative viability (NCI-H441; first compound 0.253 µM)?
Its relative viability is 0.197.

What about the relative viability (NCI-H441; first compound 0.8 µM) of the same compound?
The relative viability was 0.254.

And the relative viability (NCI-H441; first compound 2.53 µM)?
Its relative viability is 0.24.

And the relative viability (NCI-H522; first compound 0.08 µM)?
The relative viability was 0.981.

What about the relative viability (NCI-H522; first compound 0.253 µM) of the same compound?
Its relative viability is 0.823.

And the relative viability (NCI-H522; first compound 0.8 µM)?
The relative viability was 0.919.

And the relative viability (NCI-H522; first compound 2.53 µM)?
The relative viability was 0.855.

And the relative viability (NCI-H647; first compound 0.08 µM)?
Its relative viability is 0.471.

And the relative viability (NCI-H647; first compound 0.253 µM)?
Its relative viability is 0.358.

What about the relative viability (NCI-H647; first compound 0.8 µM) of the same compound?
Its relative viability is 0.361.

And the relative viability (NCI-H647; first compound 2.53 µM)?
Its relative viability is 0.469.

And the relative viability (NCI-H650; first compound 0.08 µM)?
Its relative viability is 0.339.

And the relative viability (NCI-H650; first compound 0.253 µM)?
The relative viability was 0.371.

And the relative viability (NCI-H650; first compound 0.8 µM)?
Its relative viability is 0.351.

And the relative viability (NCI-H650; first compound 2.53 µM)?
The relative viability was 0.355.

What about the relative viability (NCI-H727; first compound 0.08 µM) of the same compound?
Its relative viability is 0.623.

And the relative viability (NCI-H727; first compound 0.253 µM)?
The relative viability was 0.667.

And the relative viability (NCI-H727; first compound 0.8 µM)?
The relative viability was 0.73.

What about the relative viability (NCI-H727; first compound 2.53 µM) of the same compound?
Its relative viability is 0.658.

What about the relative viability (NCI-H838; first compound 0.08 µM) of the same compound?
The relative viability was 0.227.

What about the relative viability (NCI-H838; first compound 0.253 µM) of the same compound?
Its relative viability is 0.207.

And the relative viability (NCI-H838; first compound 0.8 µM)?
The relative viability was 0.191.

And the relative viability (NCI-H838; first compound 2.53 µM)?
The relative viability was 0.233.
